Laboratory results from ChEMBL document CHEMBL4732135, “Structural and mechanistic insights into the inhibition of amyloid-β aggregation by Aβ fragment derived synthetic peptides” (Eur J Med Chem, 2021).
The source made the active and inactive calls. The rule behind the calls is not given here. Square brackets hold non-standard residues; d marks the D form. Peptide text beside a SMILES is read from it. 1Nal = N[C@@H](Cc1cccc2ccccc12)C(=O)O; NMeF = CN[C@@H](Cc1ccccc1)C(=O)O; NMeI = CC[C@H](C)[C@H](NC)C(=O)O; Tle = CC(C)(C)[C@H](N)C(=O)O

Experiments:
[1] = system: PC-12; experiment: Neuroprotective activity against amyloid beta 42-induced toxicity in rat PC-12 cells assessed as cell viability at 10 uM measured after 6 hrs by MTT assay (reference value: 74.05%); assay type: functional; settings: read-out: Activity
[2] = system: PC-12; experiment: Neuroprotective activity against amyloid beta 42-induced toxicity in rat PC-12 cells assessed as cell viability at 4 uM measured after 6 hrs by MTT assay (reference value: 74.05%); assay type: functional; settings: read-out: Activity
[3] = system: PC-12; experiment: Neuroprotective activity against amyloid beta 42-induced toxicity in rat PC-12 cells assessed as cell viability at 2 uM measured after 6 hrs by MTT assay (reference value: 74.05%); assay type: functional; settings: read-out: Activity
[4] = target: Amyloid-beta precursor protein (Homo sapiens) (UniProt P05067); experiment: Inhibition of amyloid beta (1 to 42) (unknown origin) assessed as reduction in peptide aggregation at 10 uM measured after 24 hrs by thioflavin-T fluorescence assay relative to control
[5] = target: Amyloid-beta precursor protein (Homo sapiens) (UniProt P05067); experiment: Inhibition of amyloid beta (1 to 42) (unknown origin) assessed as reduction in peptide aggregation at 4 uM measured after 24 hrs by thioflavin-T fluorescence assay relative to control
[6] = target: Amyloid-beta precursor protein (Homo sapiens) (UniProt P05067); experiment: Inhibition of amyloid beta (1 to 42) (unknown origin) assessed as reduction in peptide aggregation at 2 uM measured after 24 hrs by thioflavin-T fluorescence assay relative to control
[7] = target: Amyloid-beta precursor protein (Homo sapiens) (UniProt P05067); experiment: Inhibition of amyloid beta (1 to 42) (unknown origin) aggregation assessed as relative fluorescence unit at 10 uM measured after 24 hrs by thioflavin-T fluorescence assay (reference value: 100%)
[8] = target: Amyloid-beta precursor protein (Homo sapiens) (UniProt P05067); experiment: Inhibition of amyloid beta (1 to 42) (unknown origin) aggregation assessed as relative fluorescence unit at 4 uM measured after 24 hrs by thioflavin-T fluorescence assay (reference value: 100%)
[9] = target: Amyloid-beta precursor protein (Homo sapiens) (UniProt P05067); experiment: Inhibition of amyloid beta (1 to 42) (unknown origin) aggregation assessed as relative fluorescence unit at 2 uM measured after 24 hrs by thioflavin-T fluorescence assay (reference value: 100%)
[10] = system: PC-12; experiment: Neuroprotective activity against amyloid beta 42-induced toxicity in rat PC-12 cells assessed as cell viability at 1 uM measured after 6 hrs by MTT assay (reference value: 73.8%); assay type: functional; settings: read-out: Activity
[11] = system: PC-12; experiment: Neuroprotective activity against amyloid beta 42-induced toxicity in rat PC-12 cells assessed as cell viability at 0.5 uM measured after 6 hrs by MTT assay (reference value: 73.8%); assay type: functional; settings: read-out: Activity
[12] = system: PC-12; experiment: Neuroprotective activity against amyloid beta 42-induced toxicity in rat PC-12 cells assessed as cell viability at 0.1 uM measured after 6 hrs by MTT assay (reference value: 73.8%); assay type: functional; settings: read-out: Activity
[13] = target: Amyloid-beta precursor protein (Homo sapiens) (UniProt P05067); experiment: Inhibition of amyloid beta (1 to 42) (unknown origin) assessed as reduction in peptide aggregation at 1 uM measured after 24 hrs by thioflavin-T fluorescence assay relative to control
[14] = target: Amyloid-beta precursor protein (Homo sapiens) (UniProt P05067); experiment: Inhibition of amyloid beta (1 to 42) (unknown origin) assessed as reduction in peptide aggregation at 0.5 uM measured after 24 hrs by thioflavin-T fluorescence assay relative to control
[15] = target: Amyloid-beta precursor protein (Homo sapiens) (UniProt P05067); experiment: Inhibition of amyloid beta (1 to 42) (unknown origin) assessed as reduction in peptide aggregation at 0.1 uM measured after 24 hrs by thioflavin-T fluorescence assay relative to control
[16] = system: PC-12; experiment: Cytotoxicity against rat PC-12 cells assessed as reduction in cell viability at 20 uM measured after 6 hrs by MTT assay; assay type: cell-based; settings: pc-12, 6 h
[17] = system: Cortical neurone; experiment: Cytotoxicity against rat primary cortical neuron assessed as reduction in cell viability at 20 uM measured after 6 hrs by MTT assay; assay type: cell-based
[18] = target: Amyloid-beta precursor protein (Homo sapiens) (UniProt P05067); experiment: Inhibition of amyloid beta (1 to 42) (unknown origin) aggregation assessed as protein with beta sheet conformation at 10 uM measured after 24 hrs by circular dichroism analysis (reference value: 66.4%); design: scale not given: the % may be the effect or the level left
[19] = target: Amyloid-beta precursor protein (Homo sapiens) (UniProt P05067); experiment: Inhibition of amyloid beta (1 to 42) (unknown origin) aggregation assessed as protein with random coil conformation at 10 uM measured after 24 hrs by circular dichroism analysis (reference value: 5%); design: scale not given: the % may be the effect or the level left
[20] = target: Amyloid-beta precursor protein (Homo sapiens) (UniProt P05067); experiment: Inhibition of amyloid beta (1 to 42) (unknown origin) aggregation assessed as protein with turn conformation at 10 uM measured after 24 hrs by circular dichroism analysis (reference value: 11.6%); design: scale not given: the % may be the effect or the level left
[21] = target: Amyloid-beta precursor protein (Homo sapiens) (UniProt P05067); experiment: Binding affinity to amyloid beta (1 to 42) (unknown origin) assessed as absence of fibrillar assembly at 10 uM measured after 24 hrs by HR-TEM analysis
[22] = target: Amyloid-beta precursor protein (Homo sapiens) (UniProt P05067); experiment: Binding affinity to amyloid beta (1 to 42) (unknown origin) assessed as absence of fibrillar assembly at 10 uM measured after 24 hrs by STEM analysis
[23] = system: Cortical neurone; experiment: Neuroprotective activity against amyloid beta 42-induced toxicity in rat primary cortical neurons at 10 uM; assay type: functional, cell-based
[24] = Effective permeability of compound in pH 8 PBS buffer by PAMPA-BBB assay; assay type: ADME

Amyloid-beta precursor protein (Homo sapiens), sequence (P05067 whole entry): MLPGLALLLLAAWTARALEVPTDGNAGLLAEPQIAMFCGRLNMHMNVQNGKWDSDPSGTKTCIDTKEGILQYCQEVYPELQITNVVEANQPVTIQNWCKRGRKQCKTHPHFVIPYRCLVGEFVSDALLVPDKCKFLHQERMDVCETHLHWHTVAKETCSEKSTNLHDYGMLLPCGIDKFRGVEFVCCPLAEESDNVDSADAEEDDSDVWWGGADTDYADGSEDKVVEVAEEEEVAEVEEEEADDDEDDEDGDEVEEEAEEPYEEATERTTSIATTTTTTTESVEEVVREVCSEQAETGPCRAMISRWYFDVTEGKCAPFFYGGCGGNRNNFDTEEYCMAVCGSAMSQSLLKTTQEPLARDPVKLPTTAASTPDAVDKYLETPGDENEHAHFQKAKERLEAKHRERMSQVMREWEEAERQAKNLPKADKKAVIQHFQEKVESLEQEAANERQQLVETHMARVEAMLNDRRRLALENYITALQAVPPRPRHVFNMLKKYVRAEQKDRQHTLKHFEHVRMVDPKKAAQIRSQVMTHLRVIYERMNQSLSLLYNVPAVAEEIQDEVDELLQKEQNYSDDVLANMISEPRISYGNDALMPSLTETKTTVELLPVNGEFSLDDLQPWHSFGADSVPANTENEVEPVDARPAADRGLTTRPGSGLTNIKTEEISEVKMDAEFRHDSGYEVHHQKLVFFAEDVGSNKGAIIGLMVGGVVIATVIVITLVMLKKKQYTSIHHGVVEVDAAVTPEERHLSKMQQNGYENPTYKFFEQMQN

| Structure (SMILES) | viability at 10 µM [1] [%] | viability at 4 µM [2] [%] | viability at 2 µM [3] [%] | inhibition [4] [%] | inhibition [5] [%] | inhibition [6] [%] | Activity [16] | Activity [17] | Peff [24] | other results |
| --- | --- | --- | --- | --- | --- | --- | --- | --- | --- | --- |
| CC[C@H](C)[C@H](NC(=O)[C@@H](NC(=O)[C@@H](N)C(C)(C)C)C(C)(C)C)C(=O)N[C@@H](C)C(=O)O (H-[Tle][Tle]IA-OH) | 100 | 100 | 100 | 95.3 | 97.4 | 100 | Non-Toxic | Non-Toxic |  | RFU [7]: 55.5%; RFU [8]: 54.5%; RFU [9]: 51.2%; viability at 1 µM [10]: 97.6%; viability at 0.5 µM [11]: 94.5%; viability at 0.1 µM [12]: 91.2%; inhibition [13]: 51.8%; inhibition [14]: 41.3%; inhibition [15]: 34.4% |
| CC[C@H](C)[C@H](NC(=O)[C@@H](NC(=O)[C@@H](N)Cc1cccc2ccccc12)C(C)C)C(=O)N[C@@H](C)C(=O)O (H-[1Nal]VIA-OH) | 70.6 | 73.2 | 77 | 29.1 | 23.8 | 34 |  |  |  | Activity [18]: 18.7%; Activity [19]: 31.6%; Activity [20]: 45.3%; Activity [21]: inactive; Activity [22]: inactive |
| CC[C@H](C)[C@H](NC(=O)[C@@H](NC(=O)[C@@H](N)C(C)C)C(C)C)C(=O)N[C@@H](CC(=O)O)C(=O)O (H-VVID-OH) | 95.8 | 98.7 | 100 | 100 | 100 | 82 | Non-Toxic | Non-Toxic |  |  |
| COc1cc(/C=C/C(=O)CC(=O)/C=C/c2ccc(O)c(OC)c2)ccc1O |  |  |  |  |  |  |  |  |  | Activity [23]: Active |
| CC[C@H](C)[C@H](NC(=O)[C@@H](NC(=O)[C@H](Cc1ccccc1)NC)C(C)C)C(=O)N[C@@H](C)C(=O)O (H-[NMeF]VIA-OH) | 100 | 81 | 86.1 | 100 | 94.3 | 84.8 |  |  | Permeable |  |
| CC[C@H](C)[C@@H](C(=O)N[C@@H](C)C(=O)O)N(C)C(=O)[C@@H](NC(=O)[C@@H](N)C(C)C)C(C)C (H-VV[NMeI]A-OH) | 100 | 92.9 | 88.4 | 100 | 83.4 | 80.6 |  |  | Permeable |  |
